Source: ChEMBL document CHEMBL1201861, “Genomics of Drug Sensitity in Cancer screening data, Wellcome Trust Sanger Institute”

Legend:
Assay in all cases: cells
Settings in all cases: Homo sapiens
[1] = test system: COR-L88; type: functional, cell-based;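 note: growth inhibition of COR-L88 cells, read out with a cell viability assay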
Description: SANGER: Inhibition of human COR-L88 cell growth in a cell viability assay.

[2] = test system: CP66-MEL; type: functional, cell-based;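 note: growth inhibition of CP66-MEL cells determined in a cell viability assay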
Description: SANGER: Inhibition of human CP66-MEL cell growth in a cell viability assay.

[3] = test system: CW-2; type: functional, cell-based;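 note: growth inhibition of CW-2 cells, read out by a cell viability assay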
Description: SANGER: Inhibition of human CW-2 cell growth in a cell viability assay.

[4] = test system: Calu-6; type: functional, cell-based;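 note: growth of human Calu-6 cells, read out by a cell viability assay, IC50 marking inhibition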
Description: SANGER: Inhibition of human Calu-6 cell growth in a cell viability assay.

[5] = test system: D283 Med; type: functional, cell-based
Description: SANGER: Inhibition of human D-283MED cell growth in a cell viability assay.

[6] = test system: D-502MG; type: functional, cell-based
Description: SANGER: Inhibition of human D-502MG cell growth in a cell viability assay.

[7] = test system: DB; type: functional, cell-based
Description: SANGER: Inhibition of human DB cell growth in a cell viability assay.

[8] = test system: DEL; type: functional, cell-based;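 note: growth inhibition of the human DEL cell line, read out with a cell viability assay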
Description: SANGER: Inhibition of human DEL cell growth in a cell viability assay.

[9] = test system: DOHH-2; type: functional, cell-based;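 note: growth inhibition of human DOHH-2 cells, read out with a cell viability assay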
Description: SANGER: Inhibition of human DOHH-2 cell growth in a cell viability assay.

[10] = test system: ES3; type: functional, cell-based;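 note: growth inhibition of ES3 cells, read out with a cell viability assay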
Description: SANGER: Inhibition of human ES3 cell growth in a cell viability assay.

[11] = test system: ES5; type: functional, cell-based;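 note: growth inhibition of human ES5 cells, read out by a cell viability assay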
Description: SANGER: Inhibition of human ES5 cell growth in a cell viability assay.

[12] = test system: ES8; type: functional, cell-based;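 note: growth inhibition of human ES8 cells, read out with a cell viability assay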
Description: SANGER: Inhibition of human ES8 cell growth in a cell viability assay.

[13] = test system: EW-1; type: functional, cell-based;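 note: growth inhibition of the human EW-1 cell line, read out by a cell viability assay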
Description: SANGER: Inhibition of human EW-1 cell growth in a cell viability assay.

[14] = test system: GAK; type: functional, cell-based;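 note: cell growth inhibition read out by a cell viability assay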
Description: SANGER: Inhibition of human GAK cell growth in a cell viability assay.

[15] = test system: GI-ME-N; type: functional, cell-based;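 note: growth inhibition of human GI-ME-N cells, read out with a cell viability assay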
Description: SANGER: Inhibition of human GI-ME-N cell growth in a cell viability assay.

[16] = test system: GT3TKB; type: functional, cell-based;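 note: growth inhibition of the cell line, read out with a cell viability assay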
Description: SANGER: Inhibition of human GT3TKB cell growth in a cell viability assay.

[17] = test system: HH; type: functional, cell-based
Description: SANGER: Inhibition of human HH cell growth in a cell viability assay.

[18] = test system: HL-60; type: functional, cell-based;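 note: growth inhibition of human HL-60 cells, read out with a cell viability assay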
Description: SANGER: Inhibition of human HL-60 cell growth in a cell viability assay.

[19] = test system: HT-144; type: functional, cell-based
Description: SANGER: Inhibition of human HT-144 cell growth in a cell viability assay.

[20] = test system: HuTu80; type: functional, cell-based, HUTU-80;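 note: growth inhibition of HuTu80 human cells, determined with a cell viability readout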
Description: SANGER: Inhibition of human HUTU-80 cell growth in a cell viability assay.

[21] = test system: IA-LM; type: functional, cell-based;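 note: cell viability assay measuring growth inhibition of human IA-LM cells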
Description: SANGER: Inhibition of human IA-LM cell growth in a cell viability assay.

[22] = test system: IST-MES1; type: functional, cell-based;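 note: growth inhibition of IST-MES1 cells, measured with a cell viability assay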
Description: SANGER: Inhibition of human IST-MES1 cell growth in a cell viability assay.

[23] = test system: J-RT3-T3-5; type: functional, cell-based;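 note: cell viability assay measuring growth inhibition of human J-RT3-T3-5 cells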
Description: SANGER: Inhibition of human J-RT3-T3-5 cell growth in a cell viability assay.

[24] = test system: JAR; type: functional, cell-based;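 note: growth inhibition of human JAR cells determined with a cell viability assay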
Description: SANGER: Inhibition of human JAR cell growth in a cell viability assay.

[25] = test system: JVM-2; type: functional, cell-based;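 note: growth inhibition of JVM-2 cells determined by a cell viability assay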
Description: SANGER: Inhibition of human JVM-2 cell growth in a cell viability assay.

[26] = test system: K5; type: functional, cell-based
Description: SANGER: Inhibition of human K5 cell growth in a cell viability assay.

[27] = test system: KALS-1; type: functional, cell-based;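 note: growth inhibition of KALS-1 cells, determined with a cell viability assay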
Description: SANGER: Inhibition of human KALS-1 cell growth in a cell viability assay.

[28] = test system: KARPAS-299; type: functional, cell-based
Description: SANGER: Inhibition of human KARPAS-299 cell growth in a cell viability assay.

[29] = test system: KARPAS-45; type: functional, cell-based;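 note: inhibition of cell line growth, read out through a viability assay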
Description: SANGER: Inhibition of human KARPAS-45 cell growth in a cell viability assay.

[30] = test system: KM12; type: functional, cell-based;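 note: KM12 cell growth inhibition, read out with a cell viability assay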
Description: SANGER: Inhibition of human KM12 cell growth in a cell viability assay.

[31] = test system: KMOE-2; type: functional, cell-based;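 note: growth inhibition of human KMOE-2 cells, read out with a cell viability assay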
Description: SANGER: Inhibition of human KMOE-2 cell growth in a cell viability assay.

[32] = test system: L-363; type: functional, cell-based
Description: SANGER: Inhibition of human L-363 cell growth in a cell viability assay.

[33] = test system: LAN-6; type: functional, cell-based;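 note: growth inhibition of LAN-6 cells, determined with a cell viability assay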
Description: SANGER: Inhibition of human LAN-6 cell growth in a cell viability assay.

[34] = test system: LB2518-MEL; type: functional, cell-based;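 note: growth inhibition of human LB2518-MEL cells, measured with a cell viability assay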
Description: SANGER: Inhibition of human LB2518-MEL cell growth in a cell viability assay.

[35] = test system: LC-2-ad; type: functional, cell-based;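 note: growth inhibition of human LC-2-ad cells, read out with a cell viability assay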
Description: SANGER: Inhibition of human LC-2-ad cell growth in a cell viability assay.

[36] = test system: LOX IMVI; type: functional, cell-based
Description: SANGER: Inhibition of human LOXIMVI cell growth in a cell viability assay.

[37] = test system: LU-134-A; type: functional, cell-based
Description: SANGER: Inhibition of human LU-134-A cell growth in a cell viability assay.

[38] = test system: Lu-65; type: functional, cell-based;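 note: growth inhibition of Lu-65 cancer cells, read out by a cell viability assay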
Description: SANGER: Inhibition of human LU-65 cell growth in a cell viability assay.

[39] = test system: MEG-01; type: functional, cell-based;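 note: growth inhibition of MEG-01 cells, read out by a cell viability assay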
Description: SANGER: Inhibition of human MEG-01 cell growth in a cell viability assay.

[40] = test system: MHH-PREB-1; type: functional, cell-based;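 note: cell viability assay measuring inhibition of proliferation of human MHH-PREB-1 cells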
Description: SANGER: Inhibition of human MHH-PREB-1 cell growth in a cell viability assay.

[41] = test system: MLMA; type: functional, cell-based;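 note: growth inhibition of MLMA cells (human), determined through a cell viability readout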
Description: SANGER: Inhibition of human MLMA cell growth in a cell viability assay.

[42] = test system: MOLT-4; type: functional, cell-based;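 note: growth inhibition of MOLT-4 cells, determined with a cell viability readout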
Description: SANGER: Inhibition of human MOLT-4 cell growth in a cell viability assay.

[43] = test system: MV4-11; type: functional, cell-based, MV-4-11;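 note: cell viability readout measuring growth inhibition of human MV-4-11 cells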
Description: SANGER: Inhibition of human MV-4-11 cell growth in a cell viability assay.

[44] = test system: MZ7-mel; type: functional, cell-based;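 note: growth inhibition of human MZ7-mel cells, measured by a cell viability assay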
Description: SANGER: Inhibition of human MZ7-mel cell growth in a cell viability assay.

[45] = test system: NCI-H1581; type: functional, cell-based;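 note: cell growth inhibition read out by a viability assay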
Description: SANGER: Inhibition of human NCI-H1581 cell growth in a cell viability assay.

[46] = test system: NCI-H1770; type: functional, cell-based;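 note: growth inhibition of NCI-H1770 cells determined with a viability readout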
Description: SANGER: Inhibition of human NCI-H1770 cell growth in a cell viability assay.

[47] = test system: SNU1; type: functional, cell-based;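 note: growth inhibition of human NCI-SNU-1 cells, measured with a cell viability assay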
Description: SANGER: Inhibition of human NCI-SNU-1 cell growth in a cell viability assay.

[48] = test system: NMC-G1; type: functional, cell-based;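 note: growth inhibition of the NMC-G1 cell line, measured with a cell viability read-out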
Description: SANGER: Inhibition of human NMC-G1 cell growth in a cell viability assay.

[49] = test system: NTERA-2-cl-D1; type: functional, cell-based;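 note: inhibition of cell growth, measured with a cell viability assay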
Description: SANGER: Inhibition of human NTERA-S-cl-D1 cell growth in a cell viability assay.

[50] = test system: OCUB-M; type: functional, cell-based;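 note: growth inhibition of the cancer cell line, read out through a cell viability assay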
Description: SANGER: Inhibition of human OCUB-M cell growth in a cell viability assay.

[51] = test system: ONS-76; type: functional, cell-based;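 note: growth inhibition of human ONS-76 cells, read out with a cell viability assay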
Description: SANGER: Inhibition of human ONS-76 cell growth in a cell viability assay.

[52] = test system: OVCAR-4; type: functional, cell-based;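 note: growth inhibition of human OVCAR-4 cells, measured with a cell viability assay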
Description: SANGER: Inhibition of human OVCAR-4 cell growth in a cell viability assay.

[53] = test system: QIMR-WIL; type: functional, cell-based;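 note: growth inhibition of QIMR-WIL cells, read out with a cell viability assay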
Description: SANGER: Inhibition of human QIMR-WIL cell growth in a cell viability assay.

[54] = test system: RPMI-8866; type: functional, cell-based
Description: SANGER: Inhibition of human RPMI-8866 cell growth in a cell viability assay.

[55] = test system: RXF 393; type: functional, cell-based;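 note: growth inhibition of human RXF 393 cells, read out with a cell viability assay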
Description: SANGER: Inhibition of human RXF393 cell growth in a cell viability assay.

[56] = test system: SBC-1; type: functional, cell-based;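 note: cell viability assay measuring growth inhibition of the SBC-1 cell line, IC50 being the concentration that halves growth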
Description: SANGER: Inhibition of human SBC-1 cell growth in a cell viability assay.

[57] = test system: SHP77; type: functional, cell-based, SHP-77;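 note: growth inhibition of human SHP-77 cells measured by a cell viability assay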
Description: SANGER: Inhibition of human SHP-77 cell growth in a cell viability assay.

[58] = test system: SK-N-FI; type: functional, cell-based;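 note: cell viability assay measuring growth inhibition of human SK-N-FI cells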
Description: SANGER: Inhibition of human SK-N-FI cell growth in a cell viability assay.

[59] = test system: SK-PN-DW; type: functional, cell-based;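 note: growth inhibition measured with a viability assay on these cells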
Description: SANGER: Inhibition of human SK-PN-DW cell growth in a cell viability assay.

[60] = test system: SW 962; type: functional, cell-based;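 note: growth inhibition of human SW962 cells, read out by a cell viability assay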
Description: SANGER: Inhibition of human SW962 cell growth in a cell viability assay.

[61] = test system: A3-KAW; type: functional, cell-based
Description: SANGER: Inhibition of human A3-KAW cell growth in a cell viability assay.

[62] = test system: A4-Fuk; type: functional, cell-based
Description: SANGER: Inhibition of human A4-Fuk cell growth in a cell viability assay.

[63] = test system: A704; type: functional, cell-based
Description: SANGER: Inhibition of human A704 cell growth in a cell viability assay.

[64] = test system: TE-10; type: functional, cell-based
Description: SANGER: Inhibition of human TE-10 cell growth in a cell viability assay.

[65] = test system: TE-11; type: functional, cell-based
Description: SANGER: Inhibition of human TE-11 cell growth in a cell viability assay.

[66] = test system: UACC-257; type: functional, cell-based
Description: SANGER: Inhibition of human UACC-257 cell growth in a cell viability assay.

Q: What does the source list for `CCNC(=O)c1noc(-c2cc(C(C)C)c(O)cc2O)c1-c1ccc(CN2CCOCC2)cc1` [LUMINESPIB]?
A: IC50 [1]: 0.171 µM; IC50 [2]: 0.0789 µM; IC50 [3]: > 0.256 µM; IC50 [4]: 0.0796 µM; IC50 [5]: > 0.256 µM; IC50 [6]: > 0.256 µM; IC50 [7]: 0.229 µM; IC50 [8]: 0.112 µM; IC50 [9]: 0.186 µM; IC50 [10]: 0.0876 µM; IC50 [11]: > 0.256 µM; IC50 [12]: 0.0354 µM; IC50 [13]: 0.0282 µM; IC50 [14]: 0.0573 µM; IC50 [15]: 0.0743 µM; IC50 [16]: 0.012 µM; IC50 [17]: 0.142 µM; IC50 [18]: 0.0181 µM; IC50 [19]: 0.00155 µM; IC50 [20]: 0.02 µM; IC50 [21]: 0.0109 µM; IC50 [22]: > 0.256 µM; IC50 [23]: 0.0897 µM; IC50 [24]: > 0.256 µM; IC50 [25]: > 0.256 µM; IC50 [26]: 0.0131 µM; IC50 [27]: 0.0147 µM; IC50 [28]: 0.23 µM; IC50 [29]: 0.0935 µM; IC50 [30]: 0.014 µM; IC50 [31]: 0.0575 µM; IC50 [32]: 0.069 µM; IC50 [33]: 0.085 µM; IC50 [34]: > 0.256 µM; IC50 [35]: 0.0137 µM; IC50 [36]: 0.0232 µM; IC50 [37]: 0.0571 µM; IC50 [38]: 0.202 µM; IC50 [39]: 0.173 µM; IC50 [40]: 0.0931 µM; IC50 [41]: 0.0461 µM; IC50 [42]: 0.048 µM; IC50 [43]: 0.000558 µM; IC50 [44]: 0.0433 µM; IC50 [45]: > 0.256 µM; IC50 [46]: 0.0588 µM; IC50 [47]: 0.0789 µM; IC50 [48]: 0.0228 µM; IC50 [49]: 0.0134 µM; IC50 [50]: 0.0396 µM; IC50 [51]: 0.0295 µM; IC50 [52]: 0.0386 µM; IC50 [53]: 0.0127 µM; IC50 [54]: > 0.256 µM; IC50 [55]: 0.0086 µM; IC50 [56]: > 0.256 µM; IC50 [57]: 0.145 µM; IC50 [58]: > 0.256 µM; IC50 [59]: 0.0559 µM; IC50 [60]: 0.0285 µM; IC50 [61]: 0.227 µM; IC50 [62]: 0.017 µM; IC50 [63]: > 0.256 µM; IC50 [64]: 0.0198 µM; IC50 [65]: 0.2 µM; IC50 [66]: 0.0751 µM

Q: Which IC50 [1] does the source give for `CO[C@@]12[C@H](COC(N)=O)C3=C(C(=O)C(C)=C(N)C3=O)N1C[C@@H]1N[C@@H]12` [MITOMYCIN] here?
A: Its IC50 is 0.319 µM.

Q: And the IC50 [2]?
A: Its IC50 is 0.645 µM.

Q: What about the IC50 [3] of the same molecule?
A: Its IC50 is 7.73 µM.

Q: What about the IC50 [4] of the same molecule?
A: The IC50 was 0.32 µM.

Q: And the IC50 [5]?
A: Its IC50 is 0.221 µM.

Q: And the IC50 [6]?
A: Its IC50 is greater than 16 µM.

Q: And the IC50 [7]?
A: The IC50 was 0.43 µM.

Q: And the IC50 [8]?
A: Its IC50 is 0.0484 µM.

Q: What about the IC50 [9] of the same molecule?
A: The IC50 was 0.0938 µM.

Q: What about the IC50 [10] of the same molecule?
A: The IC50 was less than 0.0625 µM.

Q: What about the IC50 [11] of the same molecule?
A: Its IC50 is 0.102 µM.

Q: What about the IC50 [12] of the same molecule?
A: The IC50 was less than 0.0625 µM.

Q: What about the IC50 [13] of the same molecule?
A: The IC50 was 0.0881 µM.

Q: And the IC50 [14]?
A: The IC50 was 0.596 µM.

Q: What about the IC50 [15] of the same molecule?
A: Its IC50 is 1.39 µM.

Q: What about the IC50 [16] of the same molecule?
A: The IC50 was 0.318 µM.

Q: And the IC50 [17]?
A: Its IC50 is 1.07 µM.

Q: What about the IC50 [18] of the same molecule?
A: Its IC50 is 0.106 µM.

Q: What about the IC50 [19] of the same molecule?
A: The IC50 was 0.0238 µM.

Q: And the IC50 [20]?
A: Its IC50 is less than 0.0625 µM.

Q: What about the IC50 [21] of the same molecule?
A: Its IC50 is 0.109 µM.

Q: And the IC50 [22]?
A: The IC50 was 4.15 µM.

Q: What about the IC50 [23] of the same molecule?
A: The IC50 was 0.186 µM.

Q: And the IC50 [24]?
A: Its IC50 is 4.56 µM.

Q: What about the IC50 [25] of the same molecule?
A: Its IC50 is 0.397 µM.

Q: And the IC50 [26]?
A: Its IC50 is 1.78 µM.

Q: And the IC50 [27]?
A: Its IC50 is 0.129 µM.

Q: And the IC50 [28]?
A: The IC50 was 1.42 µM.

Q: And the IC50 [29]?
A: The IC50 was 2.27 µM.

Q: And the IC50 [30]?
A: Its IC50 is 1.08 µM.

Q: And the IC50 [31]?
A: The IC50 was 1.62 µM.

Q: And the IC50 [32]?
A: The IC50 was 0.434 µM.

Q: And the IC50 [33]?
A: The IC50 was 0.328 µM.

Q: What about the IC50 [34] of the same molecule?
A: Its IC50 is 0.535 µM.

Q: What about the IC50 [35] of the same molecule?
A: The IC50 was less than 0.0625 µM.

Q: And the IC50 [36]?
A: The IC50 was 0.353 µM.

Q: And the IC50 [37]?
A: Its IC50 is 0.0467 µM.

Q: What about the IC50 [38] of the same molecule?
A: The IC50 was 1.01 µM.

Q: And the IC50 [39]?
A: Its IC50 is 0.683 µM.

Q: And the IC50 [40]?
A: The IC50 was 3.15 µM.

Q: And the IC50 [41]?
A: Its IC50 is 1.31 µM.

Q: And the IC50 [42]?
A: The IC50 was less than 0.0625 µM.

Q: And the IC50 [43]?
A: Its IC50 is less than 0.0625 µM.

Q: What about the IC50 [44] of the same molecule?
A: Its IC50 is 0.333 µM.

Q: And the IC50 [45]?
A: Its IC50 is 0.907 µM.

Q: What about the IC50 [46] of the same molecule?
A: Its IC50 is 0.343 µM.

Q: And the IC50 [47]?
A: Its IC50 is 0.156 µM.

Q: What about the IC50 [48] of the same molecule?
A: Its IC50 is 0.217 µM.

Q: And the IC50 [49]?
A: The IC50 was less than 0.0625 µM.

Q: What about the IC50 [50] of the same molecule?
A: Its IC50 is 0.103 µM.

Q: And the IC50 [51]?
A: Its IC50 is 0.33 µM.

Q: And the IC50 [52]?
A: Its IC50 is 0.697 µM.

Q: And the IC50 [53]?
A: Its IC50 is 0.12 µM.

Q: And the IC50 [54]?
A: The IC50 was 1.32 µM.

Q: What about the IC50 [55] of the same molecule?
A: The IC50 was 4.39 µM.

Q: What about the IC50 [56] of the same molecule?
A: The IC50 was 0.448 µM.

Q: And the IC50 [57]?
A: The IC50 was 1.38 µM.

Q: What about the IC50 [58] of the same molecule?
A: The IC50 was greater than 16 µM.

Q: What about the IC50 [59] of the same molecule?
A: Its IC50 is 0.0638 µM.

Q: What about the IC50 [60] of the same molecule?
A: The IC50 was 0.158 µM.

Q: What about the IC50 [61] of the same molecule?
A: The IC50 was 0.035 µM.

Q: And the IC50 [62]?
A: The IC50 was 0.225 µM.

Q: What about the IC50 [63] of the same molecule?
A: Its IC50 is 2.38 µM.

Q: And the IC50 [64]?
A: The IC50 was 0.0726 µM.

Q: What about the IC50 [65] of the same molecule?
A: The IC50 was 0.0918 µM.

Q: And the IC50 [66]?
A: The IC50 was 1.57 µM.
